According to patent publication US6673561B1, “Diagnostic test for thrombotic or thromboembolic disease” (Regents of the University of California, priority 1999, dated 2004):
“Also recorded” adds a separate entry of the source. One block for each substance: values may come before it.

Key:
[1] = system: FPB antiserum (R4097, bleed I3); assay: Competitive ELISA for specificity of the FPB antiserum (competitor in solution vs surface-bound synthetic human FPB); format: binding, rabbit; settings: for competition / cross-reaction with FPB antiserum (in words): competitor in solution vs surface-bound synthetic human FPB; for IC50: FPB antiserum 1:2500, competitive ELISA, read-out: IC50, competition for antibody binding to surface-bound synthetic human FPB; for cross-reactivity, defined as IC50 of FPB divided by IC50 of competitor times 100: FPB antiserum, competitive ELISA
Experimental: A competitive ELISA was developed to evaluate the specificity of the FPB antiserum. Unless otherwise noted, all steps were performed at room temperature, and the microplates were washed three times in between each step with 0.02 M NaH2PO4, 0.15 M NaCl, 1 mM EDTA, pH 7.4 (PNE) containing 0.1% tween-20. Microplate wells were first coated with synthetic human FPB ([…] in 0.2 M NaHCO3, […]) overnight at 4 C., and then “blocked” with 1% BSA in PNE (PNEA) for one hour. Meanwhile, serial dilutions of each competitor were prepared. The following competitors, all of human origin except where noted, were tested: native FPB (human and canine), synthetic FPB, synthetic des-arg FPB, synthetic fibrinopeptide A, and purified fibrinogen. […] of each competitor dilution were pre-incubated separately with […] of FPB antiserum (1:2500) in polypropylene microfuge tubes for 90 min. Dilutions of the competitors and of antiserum were prepared in dilution buffer (PNEA containing 0.1% tween-20). At the end of the pre-incubation period, 100 mL of each mixture were applied to duplicate FPB-coated wells and incubated for 90 min. After washing, 100 mL of peroxidase-conjugated goat anti-rabbit IgG detecting antibody (1:5000 in dilution buffer) were added to each well and incubated for one hour. After a final wash, each well was developed with 100 ml of OPD substrate solution for exactly five minutes. The reaction was stopped by addition of an equal volume of 3 N H2SO4, and the absorbance (490 nm) of each well was measured in the microplate reader.
A competitive ELISA was developed for determination of the FPB concentration in plasma and urine ultrafiltrates. Unless otherwise noted, all steps were performed at room temperature, and the microplates were washed three times in between each step with 0.02 M NaH2PO4, 0.15 M NaCl, 1 mM EDTA, pH 7.4 (PNE) containing 0.1% tween-20. Microplate wells were first coated with synthetic FPB (2 μg/ml in 0.2 M NaHCO3, 100 μl/well) overnight at 4 C., and then “blocked” with 1% BSA in PNE (PNEA) for one hour. Meanwhile, 20 μl of ultrafiltered samples and synthetic FPB standards (1.56-100 ng/ml) were pre-incubated separately with 200 μl of FPB antiserum (1:2500) in polypropylene microfuge tubes for one hour. Dilutions of the FPB standard and antiserum were prepared in dilution buffer (PNEA containing 0.1% tween-20). At the end of the pre-incubation period, 100 μl of each mixture were applied to duplicate FPB-coated wells and incubated for one hour. After washing, 100 μl of peroxidase-conjugated goat anti-rabbit IgG detecting antibody (1:5000 in dilution buffer) were added to each well and incubated for one hour. After a final wash, each well was developed with 100 μl of OPD substrate solution for exactly five minutes. The reaction was stopped by addition of an equal volume of 3 N H2SO4, and the absorbance (490 nm) of each well was measured in a microplate reader. The concentration of FPB in the samples was interpolated from a standard curve obtained by plotting the FPB concentration of each standard versus the corresponding absorbance. If sample values exceeded the upper limit of the standard curve, those samples were re-tested after appropriate dilution with dilution buffer. The intra- and inter-assay coefficients of variation for the FPB assay were 14.1% and 5.0%, respectively. The competitive ELISA was also used to assess the cross-reactivity of the FPB antiserum with human fibrinogen, fibrinopeptide A (FPA), des-arg FPB, and canine FPB.

[2] = Urinary FPBtot before and during anticoagulation in VTE patients (Example 6); format: in vivo, human
Description: Consecutive patients referred to the VTE service in whom the diagnosis of DVT and/or PE is confirmed (based on the criteria described above) are enrolled. Prior to therapy, blood and urine samples are collected for measurement of FPBtot (and other FPB measurements described above). Patients are then be treated with intravenous heparin (80 units/kg bolus, 18 units/kg/hr infusion), with the dose adjusted per protocol to keep aPTT 1.5-2.5 times the control values. As soon as steady-state “therapeutic doses” of heparin are maintained, blood and urine are collected again and the same parameters are measured. In addition, plasma aPTT, anti-Xa and anti-thrombin measurements are made as previously described (Morris et al. 1998).
For each patient, the difference between urinary and plasma FPBtot levels, measured before and after anticoagulation, is recorded. The mean reduction in FPBtot levels after anticoagulation is calculated. The required sample size is estimated based on the preliminary data described below: The mean (+/−SD) decrease in urinary FPBtot during anticoagulation was 60 ng/ml (+/−85.7 ng/ml). Assuming similar standard deviations for the VTE patients to be studied, thirty-seven pairs of samples are required in order to detect a 50% decrease in the levels after anticoagulation, with an alpha of 0.01 and a power of 95%.

[3] = system: experimentally induced thrombi; assay: Canine experimental thrombosis model, FPBtot in plasma and urine (Example 2); format: in vivo, dog; settings: heparin bolus 300 units/kg, infusion 90 units/kg/hr after embolization, three dogs
Description: Adult mongrel dogs were anesthetized and their native fibrinogen depleted. After the ancrod has been eliminated from the circulation, during a time when the native fibrinogen activity is minimal, experimental thrombi are induced as previously described (Morris et al. 1997b). The dogs are anesthetized with halothane, intubated and mechanically ventilated to maintain arterial blood gases within normal limits. […] After this, they were transfused with 6 grams of purified human fibrinogen in normal saline to achieve a fibrinogen level of at least 300 mg/dl. Under these conditions, fibrinogen levels were maintained at >200 mg/dl throughout the study period.
Double balloon catheters were advanced via hind-leg saphenous veins to the femoral veins on each side. The balloons were then inflated, creating a 5 ml sealed chamber within the veins. […]
Blood and urine samples were collected into titrated tubes (containing protease inhibitors) at baseline, after defibrinogenation, at regular intervals after thrombus induction, and after anticoagulation. […] All samples were stored at […] until analyzed. FPBtot levels in urine and ultrafiltrated plasma are determined by immunoassay as described above.
The means and standard deviations of the FPBtot levels, as determined by immunoassay, associated with each time point are calculated. […]

[4] = system: femoral vein thrombi / pulmonary emboli; assay: Canine fibrinogen-replacement thrombosis and pulmonary embolism model, FPB in plasma and urine (Example 3); format: in vivo, dog; settings: n=3
Experimental: A competitive ELISA was developed for determination of the FPB concentration in plasma and urine ultrafiltrates. Unless otherwise noted, all steps were performed at room temperature, and the microplates were washed three times in between each step with 0.02 M NaH2PO4, 0.15 M NaCl, 1 mM EDTA, pH 7.4 (PNE) containing 0.1% tween-20. Microplate wells were first coated with synthetic FPB (2 μg/ml in 0.2 M NaHCO3, 100 μl/well) overnight at 4 C., and then “blocked” with 1% BSA in PNE (PNEA) for one hour. Meanwhile, 20 μl of ultrafiltered samples and synthetic FPB standards (1.56-100 ng/ml) were pre-incubated separately with 200 μl of FPB antiserum (1:2500) in polypropylene microfuge tubes for one hour. Dilutions of the FPB standard and antiserum were prepared in dilution buffer (PNEA containing 0.1% tween-20). At the end of the pre-incubation period, 100 μl of each mixture were applied to duplicate FPB-coated wells and incubated for one hour. […] The reaction was stopped by addition of an equal volume of 3 N H2SO4, and the absorbance (490 nm) of each well was measured in a microplate reader. The concentration of FPB in the samples was interpolated from a standard curve obtained by plotting the FPB concentration of each standard versus the corresponding absorbance. […]

Substance: native human FPB: FPB derived from purified human fibrinogen clotted with thrombin, ultrafiltrate (QGVNDNEEGFFSAR)
competition / cross-reaction with FPB antiserum (in words) [1]: effective competitive inhibitor

IC50 [1]: 8.9 nM
cross-reactivity, defined as IC50 of FPB divided by IC50 of competitor times 100 [1]: 75%
Substance: QGVNDNEEGFFSA [des-arg FPB, degradation product formed as FPB is exposed to carboxypeptidases in normal plasma]

IC50 [1]: 6.7 nM
Substance: QGVNDNEEGFFSAR [FPB, human fibrinopeptide B, cleaved by thrombin from the beta-chains of fibrin I]

Substance: heparin
urinary levels of FPB during anticoagulation (in words) ([2]; all but one patient): significantly decreased
mean decrease in urinary FPBtot during anticoagulation ([2]; preliminary data, mean (+/-SD)): 60 ng/mL
thrombosis after excess heparin [3]: thrombosis is halted
rise in plasma FPB following embolization ([4]; heparin iv 300 units/kg bolus, 90 units/kg/hr, one hour prior to embolization): completely suppressed
initial peak of total urinary FPB ([4]; heparin iv one hour prior to embolization): suppressed

IC50 [1]: 2.3 nM
Substance: fibrinogen: purified human fibrinogen, used as ELISA competitor and for transfusion of dogs
competition / cross-reaction with FPB antiserum (in words) [1]: significant cross-reaction; also recorded: significant cross-reactivity

Substance: native canine FPB: FPB derived from purified canine fibrinogen clotted with thrombin, ultrafiltrate (HYYDDTDEEERIVSTVDAR)
competition / cross-reaction with FPB antiserum (in words) [1]: did not compete

cross-reactivity, defined as IC50 of FPB divided by IC50 of competitor times 100 [1]: < 0.1%
Substance: FPA: short amino acid sequence at the amino terminus of the alpha chain of fibrinogen (ADSGEGDFLAEGGGVR)
